Results reported in patent publication US9957274B2, “Indane inhibitors of EED and methods of their use” (AbbVie Inc., priority 2016, dated 2018).

Columns and labels:
EED = EED (Homo sapiens, UniProt O75530); assay: EED TR-FRET Binding Assay (modified LanthaScreen competition assay)
Summary of the method: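 Competition binding in a modified LanthaScreen format, in 20 mM Tris-HCl pH 7.5, 200 mM NaCl, 0.01% Tween-20, 10 uM DTT and 0.05% BSA. Reactions ran 1 hour at 25° C before TR-FRET detection.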

[1] = tested on: H3K27me3 in OCILY19 cells; assay: H3K27me3 AlphaLISA assay in OCILY19 cells; type: cell-based; details: Homo sapiens, OCI-LY19, 144 h, 6 days with compound, read-out: OCILY-19 IC50
Description: (§1) 5,000 cells were plated into each well of 96-well Corning CellBing cell culture plates and incubated overnight at 37° C. in a humidified CO2 incubator. […] The cell culture plates were then incubated for 6 more days. H3K27me3 AlphaLISA assay was performed on the cell culture samples by using AlphaLISAR® H3K27me3 Cellular Detection Kit (PerkinElmer) and 96-well white half-area plates (PerkinElmer).

H3K27me3 in G401 cells = assay: H3K27me3 AlphaLISA assay in G401 cells; type: cell-based; details: Homo sapiens, G-401, 144 h, 6 days with compound
Description: as §1, with “G401 cells (ATCC catalog # CRL-1441) were maintained in McCoy's 5a medium (ATCC) supplemented with 10% heat-inactivated FBS (HyClone) at 37° C. in a humidified CO2 incubator. OCILY19 cells (DSMZ catalog #ACC 528) were maintained in IMDM (Invitrogen) supplemented with 10% human serum (Sigma) at 37° C. in a humidified CO2 incubator. 5,000” for “5,000”

Pfeiffer cells = assay: CTG cell viability assay (CellTiter-Glo); type: cell-based; details: Homo sapiens, 240 h; Pfeiffer cells, 10 days with compound, CellTiter-Glo; read-out: Cell Proliferation IC50
Description: 1,000 cells were plated into each well of 96-well Corning CellBing cell culture plates and incubated overnight at 37° C. in a humidified CO2 incubator. […] The cell culture plates were then incubated for 10 more days. CTG cell viability assay was performed on the cell culture samples by using CellTiter-Glo® Luminescent Cell Viability Assay Kit (Promega).

Sequence of EED (O75530 whole entry): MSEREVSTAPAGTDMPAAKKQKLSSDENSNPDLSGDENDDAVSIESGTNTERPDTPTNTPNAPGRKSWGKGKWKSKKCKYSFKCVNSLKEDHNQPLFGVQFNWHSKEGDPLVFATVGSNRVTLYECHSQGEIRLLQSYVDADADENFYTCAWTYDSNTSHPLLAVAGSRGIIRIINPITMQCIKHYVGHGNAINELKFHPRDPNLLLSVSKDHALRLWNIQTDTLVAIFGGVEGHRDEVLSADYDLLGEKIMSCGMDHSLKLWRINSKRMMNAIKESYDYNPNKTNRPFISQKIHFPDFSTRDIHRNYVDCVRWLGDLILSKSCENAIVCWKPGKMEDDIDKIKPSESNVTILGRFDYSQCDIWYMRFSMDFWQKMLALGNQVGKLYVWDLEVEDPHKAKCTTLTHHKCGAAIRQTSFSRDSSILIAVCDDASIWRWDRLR

Row | SMILES | IC50 (EED) [nM] | IC50 [1] [nM] | IC50 (H3K27me3 in G401 cells) [nM] | IC50 (Pfeiffer cells) [nM]
1 | CN(C)[C@H]1CN(C2CCc3cccc(F)c32)C[C@@H]1c1ccc(-c2cnn(C)c2)cc1 (mixture of isomers) [Example 70, rac-(3R,4S)-1-(7-fluoro-2,3-dihydro-1H-inden-1-yl)-N,N-dimethyl-4-[4-(1-methyl-1H-pyrazol-4-yl)phenyl]pyrrolidin-3-amine] | 0.853 | 248 | 129 | 266
2 | CN(C)[C@H]1CN(C2CCc3cccc(F)c32)C[C@@H]1C1CCN(c2cccnc2)CC1 (mixture of isomers) [Example 149, rac-(3R,4S)-1-(7-fluoro-2,3-dihydro-1H-inden-1-yl)-N,N-dimethyl-4-[1-(pyridin-3-yl)piperidin-4-yl]pyrrolidin-3-amine] | 2.58 | 1140 | 636 | 970
3 | CN(C)[C@H]1CN(C2CCc3cccc(F)c32)C[C@@H]1C1CCN(c2ccc(C(N)=O)cn2)CC1 (mixture of isomers) [Example 167, rac-6-{4-[(3S,4R)-4-(dimethylamino)-1-(7-fluoro-2,3-dihydro-1H-inden-1-yl)pyrrolidin-3-yl]piperidin-1-yl}pyridine-3-carboxamide] | 0.399 | 267 | 131 | 143
4 | CN(C)[C@H]1CN(C2CCc3cccc(F)c32)C[C@@H]1c1cn(C)c2c(C(=O)N3CC(F)C3)cccc12 (stereo partly drawn) [Example 102, {3-[(3S,4R)-4-(dimethylamino)-1-(7-fluoro-2,3-dihydro-1H-inden-1-yl)pyrrolidin-3-yl]-1-methyl-1H-indol-7-yl}(3-fluoroazetidin-1-yl)methanone] | 0.335 | 101 | 40.7 | 73.6
5 | COC(=O)c1ccc([C@@H]2CN(C3CCc4cccc(F)c43)C[C@H]2N(C)C)cc1 (mixture of isomers) [Example 22, rac-methyl 4-[(3R,4S)-4-(dimethylamino)-1-(7-fluoro-2,3-dihydro-1H-inden-1-yl)pyrrolidin-3-yl]benzoate] | 2.85 | 944 | 449 | 422
6 | CNC(=O)c1ccc(N2CCC([C@H]3CN(C4CCc5cccc(F)c54)C[C@@H]3N(C)C)CC2)nc1 (mixture of isomers) [Example 154, rac-6-{4-[(3S,4R)-4-(dimethylamino)-1-(7-fluoro-2,3-dihydro-1H-inden-1-yl)pyrrolidin-3-yl]piperidin-1-yl}-N-methylpyridine-3-carboxamide] | 1.98 | 493 | 372 | 455
7 | CN(C)[C@H]1CN(C2CCc3cccc(F)c32)C[C@@H]1c1cn(C)c2c(C(=O)N3CCNCC3)cccc12 (mixture of isomers) [Example 119, rac-{3-[(3S,4R)-4-(dimethylamino)-1-(7-fluoro-2,3-dihydro-1H-inden-1-yl)pyrrolidin-3-yl]-1-methyl-1H-indol-7-yl}(piperazin-1-yl)methanone] | 1.99 | 214 | 120 | 247
8 | COc1ccc([C@@H]2CN(C3CCc4cccc(F)c43)C[C@H]2N(C)C)cc1OC (mixture of isomers) [Example 23, rac-(3S,4R)-4-(3,4-dimethoxyphenyl)-1-(7-fluoro-2,3-dihydro-1H-inden-1-yl)-N,N-dimethylpyrrolidin-3-amine] | 2.72 | 393 | 198 | 921
9 | CN(C)[C@@H]1CN([C@@H]2CCc3cccc(F)c32)C[C@H]1c1ccc(C#N)cc1 (racemic) [Example 19, rac-4-{(3R,4S)-4-(dimethylamino)-1-[(1R)-7-fluoro-2,3-dihydro-1H-inden-1-yl]pyrrolidin-3-yl}benzonitrile] | 12.5 | 597 | 725 | 654
10 | CN(C)[C@H]1CN(C2CCc3cccc(F)c32)C[C@@H]1c1cn(C)c2c(C(=O)N3CC(O)C3)cccc12 (mixture of isomers) [Example 106, rac-{3-[(3S,4R)-4-(dimethylamino)-1-(7-fluoro-2,3-dihydro-1H-inden-1-yl)pyrrolidin-3-yl]-1-methyl-1H-indol-7-yl}(3-hydroxyazetidin-1-yl)methanone] | 0.782 | 69.5 | 34.4 | 74.9
11 | CN(C)[C@H]1CN(C2CCc3cccc(F)c32)C[C@@H]1c1cn(C)c2ncccc12 (mixture of isomers) [Example 164, rac-(3R,4S)-1-(7-fluoro-2,3-dihydro-1H-inden-1-yl)-N,N-dimethyl-4-(1-methyl-1H-pyrrolo[2,3-b]pyridin-3-yl)pyrrolidin-3-amine] | 0.494 | 461 | 291 | 148
12 | CN(C)[C@H]1CN(C2CCc3cccc(F)c32)C[C@@H]1c1nn(C)c2ccccc12 (mixture of isomers) [Example 156, rac-(3R,4S)-1-(7-fluoro-2,3-dihydro-1H-inden-1-yl)-N,N-dimethyl-4-(1-methyl-1H-indazol-3-yl)pyrrolidin-3-amine] | 1.41 | 293 | 212 | 375
13 | CN1CCN(c2cccc3c([C@H]4CN(C5CCc6cccc(F)c65)C[C@@H]4N(C)C)cn(C)c23)CC1=O (mixture of isomers) [Example 129, rac-4-{3-[(3S,4R)-4-(dimethylamino)-1-(7-fluoro-2,3-dihydro-1H-inden-1-yl)pyrrolidin-3-yl]-1-methyl-1H-indol-7-yl}-1-methylpiperazin-2-one] | 0.739 | 102 | 186 | 98.1
14 | CNC(=O)Cn1cc(-c2ccc([C@H]3CN(C4CCc5cccc(F)c54)C[C@@H]3N(C)C)cc2)cn1 (mixture of isomers) [Example 72, rac-2-(4-{4-[(3S,4R)-4-(dimethylamino)-1-(7-fluoro-2,3-dihydro-1H-inden-1-yl)pyrrolidin-3-yl]phenyl}-1H-pyrazol-1-yl)-N-methylacetamide] | 0.923 | 132 | 39.9 | 121
15 | CCS(=O)(=O)N1CCN(c2ccc([C@H]3CN(C4CCc5cccc(F)c54)C[C@@H]3N(C)C)cc2)CC1 (mixture of isomers) [Example 49, rac-(3R,4S)-4-{4-[4-(ethanesulfonyl)piperazin-1-yl]phenyl}-1-(7-fluoro-2,3-dihydro-1H-inden-1-yl)-N,N-dimethylpyrrolidin-3-amine] | 0.739 | 200 | 182 | 194
16 | CN(C)C(=O)N1CCN(c2cccc3c([C@H]4CN(C5CCc6cccc(F)c65)C[C@@H]4N(C)C)cn(C)c23)CC1 (mixture of isomers) [Example 131, rac-4-{3-[(3S,4R)-4-(dimethylamino)-1-(7-fluoro-2,3-dihydro-1H-inden-1-yl)pyrrolidin-3-yl]-1-methyl-1H-indol-7-yl}-N,N-dimethylpiperazine-1-carboxamide] | 0.406 | 158 | 57.3 | 122
17 | CN(C)[C@H]1CN(C2CCc3cccc(F)c32)C[C@@H]1c1cn(C)c2c(C(=O)N3CCN(S(=O)(=O)c4cncn4C)CC3)cccc12 (mixture of isomers) [Example 135, rac-{3-[(3S,4R)-4-(dimethylamino)-1-(7-fluoro-2,3-dihydro-1H-inden-1-yl)pyrrolidin-3-yl]-1-methyl-1H-indol-7-yl}[4-(1-methyl-1H-imidazole-5-sulfonyl)piperazin-1-yl]methanone] | 1.45 | 719 | 108 | 115
